Test results published in article PMC4147338, “Host defense peptides for treatment of colorectal carcinoma – a comparative in vitro and in vivo analysis” (Oncotarget, 2014).

How the values were obtained:
HROC24 xenografts = experiment: HROC24 xenograft, repetitive local peptide injection; type: in vivo, NMRI Foxn1nu mice; settings: for Tumor growth inhibition in words / Tumors macroscopically breaking up / ulceration / Tumor size, x-fold increase vs. day 0 (Vt/V0): 1 mg/kg bw local injection every third day, 9 injections, n=5; for Tumor cell apoptosis, M30 CytoDeath staining (cytokeratin 18 cleavage): immunofluorescence of cryopreserved tumor sections; for Tumor size, x-fold increase vs. day 0 (Vt/V0): PBS control: 10.3-fold
Procedure: Figure 7 In vivo growth kinetics and tumor cell apoptosis of HROC24 tumors in NMRI Foxn1mice with or without local treatment (A) Therapy was performed by repetitive local application of HDPs C7A or C7A-D21K (1 mg/kg bw) every third day (a total of 9 injections) (n=5 per group). Tumor-carrying control animals received either equivalent volumes of peptide NK11 or saline (n=5 per group). Tumor volumes are given as x-fold increase vs. day 0 (Vt/V0) (start of treatment) ± SD. *p<0.05 vs. PBS. (B) Representative immunofluorescence staining of apoptotic cells within HROC24 tumors. Cryopreserved tumor sections were stained with anti-M30 CytoDeath antibody, followed by anti-mouse IgG FITC antibody and nuclear DAPI as described in material and methods.
Experiments were performed on female 8–10-week old NMRI Foxn1^nu mice (Charles River, Sulzfeld, Germany) weighting 18-20 g. All animals were fed standard laboratory chow and given free access to water. Trials were performed in accordance with the German legislation on protection of animals and the Guide for the Care and Use of Laboratory Animals (Institute of Laboratory Animal Resources, National Research Council; NIH Guide, vol.25, no.28, 1996). NMRI Foxn1^nu mice were challenged with 5 × 10^6 HROC24 cells. Mice with established subcutaneous (s.c.) tumors received repetitive local injections of peptide C7A or C7A-D21K (1mg/kg bw, dissolved in 50 μl) every third day (a total of 9 injections) (n=5 per group). As control, tumor-carrying mice either received NK11 (1mg/kg bw, dissolved in 50 μl) or saline (50μl volume, n=5 per group). Tumor growth was controlled three times a week at time point of HDP injection and tumor volume was estimated according to the formula: V= width² * length * 0.52.
Tumor carrying mice were sacrificed at day 28 or when they became moribund before the tumor volume reached 2.000 mm³. At the end of each experiment, tumors, blood and spleens were collected from the animals of all groups for further analysis.
To study apoptotic cell death in vivo, 4 μm sections of HDP-treated and control tumors were mounted on poly-L-lysine-coated-slides. Following fixation in ice-cold methanol and blocking with 2% BSA (1h), cells were incubated with mouse anti-M30 CytoDeath antibody according to the manufacturer's instructions (Roche, Mannheim, Germany). A FITC-labeled anti-mouse IgG antibody was used as secondary antibody (Dako Envision Link, Hamburg, Germany). Cell nuclei were stained with DAPI and slides were embedded in mounting medium (Dako). Apoptotic cells were detected using a fluorescence microscope (Olympus, Münster, Germany).

[1] = FRET spectroscopy probe dilution assay, membrane intercalation; type: binding; settings: NBD-PE/rhodamine-PE, peptide 0.2-0.8 μM, 20 mM HEPES 150 mM NaCl pH 7.4, 37°C
Procedure: FRET spectroscopy served as a sensitive tool to detect lipid dependence of the membrane interaction of antimicrobial peptides. For this, all peptides were added to liposomes consisting of zwitterionic PC alone, of a mixture of PC and of negatively charged PS, as well as of pure PS (Figure 1). All lipid vesicles were doped with donor and acceptor dyes, peptides were added, and the emission intensities of both dyes were monitored over time. An increase of the fluorescence intensity of the donor (IDonor) and a simultaneous decrease of the fluorescence intensity of the acceptor dye (IAcceptor), i.e. a reduced FRET efficacy, indicated an increase in the overall mean distance between labeled phospholipids, and corresponded to an insertion of peptides into the lipid bilayer. For clarity, the IDonor/IAcceptor ratio is shown (Figure 1).
Figure 1 FRET spectroscopy. (A-C) Binding to and insertion of peptide C7A-D21K into phospholipid membranes (A) C7A-D21K was added at time point 50 s to liposomes (10 μM) consisting of pure PC, (B) a 90:10 molar mixture of PC:PS, and (C) of pure PS, each doubly doped with the fluorescently labeled FRET pair NBD-PE (donor) and rhodamine-PE (acceptor). Intercalation was monitored by measuring donor and acceptor fluorescence emission intensities. For better visualization only the quotient (IDonor/IAcceptor) is shown. Addition of the peptide solvent alone had no effect (dotted grey line). Peptide concentrations used: 0.2 μM (dotted black line, only in C), 0.4 μM (solid grey line, only in C), and 0.8 μM (solid black line). (D-F) Binding to and insertion of peptides at different concentrations into phospholipid membranes. (A) Peptides were added to liposomes consisting of pure PC, (B) a 90:10 molar mixture of PC:PS, and (C) of pure PS, each doubly doped with the fluorescently labeled phospholipid FRET pair NBD-PE (donor) and rhodamine-PE (acceptor). Intercalation was monitored by measuring donor and acceptor fluorescence intensities. The relative increase of the IDonor/IAcceptor ratio 250 s after peptide addition is shown (Increase of IDonor/IAcceptor (%) = (IDonor/IAcceptor (peptide) - IDonor/IAcceptor (control))*100). Peptide concentrations used: 0.2 μM (open bars), 0.4 μM (grey bars), and 0.8 μM (black bars).
Intercalation of peptides into liposome membranes was determined by FRET spectroscopy applied as a probe dilution assay. Liposomes were prepared by dissolving appropriate lipid mixtures (pure PC, a 90:10 molar mixture of PC:PS, as well as pure PS, each doped with 1% of the donor dye NBD-PE and 1% of the acceptor dye rhodamine-PE) in chloroform and drying them under a gentle stream of nitrogen. The resulting lipid film was dispersed in 20 mM HEPES, 150 mM NaCl, pH 7.4, sonicated for 30 min and subjected to 3-4 temperature cycles from 4 to 60°C with an incubation period of 30 min at each step. Lipid dispersions were stored at 4°C overnight before use. For the assay, donor fluorescence (NBD) was excited at 470 nm, and donor (NBD, ID at 531 nm) as well as acceptor (rhodamine, IA at 593 nm) emission intensities were monitored over time. An increase of the ratio of the donor fluorescence intensity to that of the acceptor fluorescence intensity (IDonor/I^Acceptor) was interpreted as a membrane intercalation event. This ratio depends on the Förster efficiency, therefore a rising value means that the mean distance separation of donor and acceptor dyes is raising. The assay was performed at 37°C.

Sequence | Tumor growth inhibition in words (HROC24 xenografts) | Tumors macroscopically breaking up / ulceration (HROC24 xenografts) | Tumor cell apoptosis, M30 CytoDeath staining (cytokeratin 18 cleavage) (HROC24 xenografts) | Membrane intercalation (increase of IDonor/IAcceptor) ([1]; PC:PS 90:10 liposomes 10 μM) | Membrane intercalation (increase of IDonor/IAcceptor) ([1]; pure PS liposomes 10 μM) | Tumor size, x-fold increase vs. day 0 (Vt/V0) (HROC24 xenografts) [fold] | Membrane intercalation (increase of IDonor/IAcceptor) ([1]; pure PC liposomes 10 μM)
KILRGVAKKIMRTFLRRISKDILTGKK [Peptide C7A, NK-2 derivative, Cys7 replaced with Ala] | most effectiveness | 4/5 | most strongly induced | slightly impaired | pronounced | – | –
KILRGVAKKIMRTFLRRISKKILTGKK [Peptide C7A-D21K, C7A with Asp21 substituted by Lys] | strong growth retardation | no ulceration was observed | most strongly induced | slightly impaired | pronounced | 3.4 | –
KISKRILTGKK [NK11, non-toxic control peptide based on NK-2, reference compound] | induced tumor growth retardation as well | – | elevated cytokeratin 18 cleavage | negligible | visible | 4 | negligible
